Measured values as given in patent US11787802B2, “Dihydrobenzimidazolones for medical treatment” (C4 Therapeutics, Inc., priority 2017, dated 2023).

What follows are molecules tested against hCereblon(M1-L442)_hDDB1(M1-H1140) (Homo sapiens (Human), UniProt Q96SW2) (assay: Fluorescence direct binding protocol (tryptophan fluorescence titration)). Conditions: fluorescence titration at 20° C., excited at 280 nm, recorded at 340 nm; protein 5.0 E−8 M; assay buffer 50 mM Hepes 7.4 200 mM NaCl; read-out: Fluorescence h-Cereblon_DDB1 Mean Kd_EQ.
Summary of the method: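 At 20° C., protein at constant concentration was titrated with ligand in DMSO over at least 12 steps, exciting tryptophan at 280 nm and reading emission at 340 nm. Intensities were corrected for dilution and filter effect, and Kd was fitted assuming 1:1 binding.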

Chain of hCereblon(M1-L442)_hDDB1(M1-H1140) (Q96SW2 whole entry): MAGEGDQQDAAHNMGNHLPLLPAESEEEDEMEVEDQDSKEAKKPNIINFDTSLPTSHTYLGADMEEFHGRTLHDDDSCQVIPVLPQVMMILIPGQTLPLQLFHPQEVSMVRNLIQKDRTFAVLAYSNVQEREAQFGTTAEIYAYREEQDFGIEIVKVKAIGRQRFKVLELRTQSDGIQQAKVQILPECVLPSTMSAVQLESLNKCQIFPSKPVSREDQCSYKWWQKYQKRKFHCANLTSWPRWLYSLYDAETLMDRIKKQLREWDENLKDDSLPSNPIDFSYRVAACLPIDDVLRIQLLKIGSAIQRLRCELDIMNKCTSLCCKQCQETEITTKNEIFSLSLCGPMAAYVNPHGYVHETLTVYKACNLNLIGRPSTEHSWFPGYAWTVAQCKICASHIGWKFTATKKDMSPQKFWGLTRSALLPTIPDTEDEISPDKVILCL
Chain of hCereblon(M1-L442)_hDDB1(M1-H1140) (Q16531 whole entry partner): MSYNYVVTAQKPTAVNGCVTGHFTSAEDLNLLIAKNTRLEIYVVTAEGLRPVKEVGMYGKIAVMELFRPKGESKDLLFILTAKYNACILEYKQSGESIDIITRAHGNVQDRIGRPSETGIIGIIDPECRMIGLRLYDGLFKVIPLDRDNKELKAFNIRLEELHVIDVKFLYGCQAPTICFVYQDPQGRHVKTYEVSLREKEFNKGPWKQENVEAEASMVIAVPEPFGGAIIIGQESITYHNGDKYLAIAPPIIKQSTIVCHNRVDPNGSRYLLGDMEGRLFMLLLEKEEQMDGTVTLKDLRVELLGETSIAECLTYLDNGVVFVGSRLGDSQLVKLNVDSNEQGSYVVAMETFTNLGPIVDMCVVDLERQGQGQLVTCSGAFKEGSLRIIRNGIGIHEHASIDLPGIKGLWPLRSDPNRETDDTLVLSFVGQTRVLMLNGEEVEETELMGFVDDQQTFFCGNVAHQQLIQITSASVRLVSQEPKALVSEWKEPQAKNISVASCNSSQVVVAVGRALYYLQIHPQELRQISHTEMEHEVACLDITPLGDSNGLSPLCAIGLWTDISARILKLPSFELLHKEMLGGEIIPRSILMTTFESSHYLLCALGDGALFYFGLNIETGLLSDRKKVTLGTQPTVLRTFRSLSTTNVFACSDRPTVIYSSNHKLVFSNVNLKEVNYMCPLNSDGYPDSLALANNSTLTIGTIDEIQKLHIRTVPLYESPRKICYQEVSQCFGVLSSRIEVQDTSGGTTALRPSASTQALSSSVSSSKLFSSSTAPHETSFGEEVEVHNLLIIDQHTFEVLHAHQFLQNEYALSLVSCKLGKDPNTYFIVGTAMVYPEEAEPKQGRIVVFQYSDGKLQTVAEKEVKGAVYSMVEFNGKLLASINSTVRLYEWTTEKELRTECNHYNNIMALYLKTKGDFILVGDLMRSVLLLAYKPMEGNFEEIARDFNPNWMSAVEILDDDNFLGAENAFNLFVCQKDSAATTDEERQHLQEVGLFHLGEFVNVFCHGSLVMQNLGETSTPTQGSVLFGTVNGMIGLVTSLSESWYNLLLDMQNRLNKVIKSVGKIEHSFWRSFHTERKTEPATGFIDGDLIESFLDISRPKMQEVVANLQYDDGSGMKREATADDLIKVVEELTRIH

SMILES	Kd [nM]
O=c1[nH]c2ccc(N3CCNCC3)cc2[nH]1 [Example 58, 5-(Piperazin-1-yl)-1,3-dihydro-2H-benzo[d]imidazol-2-one]	12
Cc1ccccc1-c1ccccc1C(=O)Nc1ccc2[nH]c(=O)[nH]c2c1 [Example 122, 2′-Methyl-N-(2-oxo-2,3-dihydro-1H-benzo[d]imidazol-5-yl)-[1,1′-biphenyl]-2-carboxamide]	730
CCc1nc2cc(C(=O)NCCCCCNC(=O)C[C@@H]3N=C(c4ccc(Cl)cc4)c4c(sc(C)c4C)-n4c(C)nnc43)ccc2n1-c1ccc2[nH]c(=O)[nH]c2c1 [Example A, N-(5-(2-((6S)-4-(4-chlorophenyl)-2,3,9-trimethyl-6H-thieno[3,2-f][1,2,4]triazolo[4,3-a][1,4]diazepin-6-yl)acetamido)pentyl)-2-ethyl-2′-oxo-2′,3′-dihydro-1′H-[1,5′-bibenzo[d]imidazole]-5-carboxamide]	55
CC(O)c1nc2ccccc2n1-c1ccc2[nH]c(=O)[nH]c2c1 (centres unmarked) [Example 84, 5-[2-(1-Hydroxyethyl)benzimidazol-1-yl]-1,3-dihydrobenzimidazol-2-one]	3
CNC(=O)c1ccc2nc(C(C)C)n(-c3ccc4[nH]c(=O)[nH]c4c3)c2c1 [Example 30, 2-Isopropyl-N-methyl-2′-oxo-2′,3′-dihydro-1′H-[1,5′-bibenzo[d]imidazole]-6-carboxamide]	1
O=C(c1cnc2[nH]c(=O)[nH]c2c1)N1CCCc2ccccc21 [Example 95, 6-(1,2,3,4-Tetrahydroquinoline-1-carbonyl)-1,3-dihydro-2H-imidazo[4,5-b]pyridin-2-one]	20
Cn1ccc(-c2cccc(NC(=O)c3ccc4[nH]c(=O)[nH]c4c3)c2)n1 [Example 130, N-(3-(1-Methyl-1H-pyrazol-3-yl)phenyl)-2-oxo-2,3-dihydro-1H-benzo[d]imidazole-5-carboxamide]	781
CC(=O)NCCc1nc2ccccc2n1-c1ccc2[nH]c(=O)[nH]c2c1 [Example 80, N-[2-[1-(2-Oxo-1,3-dihydrobenzimidazol-5-yl)benzimidazol-2-yl]ethyl]acetamide]	15
O=C(c1cnc2[nH]c(=O)[nH]c2c1)N1CCc2ccccc21 [Example 55, 6-(Indoline-1-carbonyl)-1,3-dihydro-2H-imidazo[4,5-b]pyridin-2-one]	< 1
CC(C)(C)OC(=O)Nc1ccc2c(c1)CCN2Cc1ccc2[nH]c(=O)[nH]c2c1 [Example 148, tert-Butyl (1-((2-oxo-2,3-dihydro-1H-benzo[d]imidazol-5-yl)methyl)indolin-5-yl)carbamate]	19
Cn1c(=O)[nH]c2ncc(C(=O)Nc3ccccc3)cc21 [Example 27, 1-Methyl-2-oxo-N-phenyl-3H-imidazo[4,5-b]pyridine-6-carboxamide]	1
CNC(=O)c1cccc2c1CCCN2C(=O)Nc1ccc2[nH]c(=O)[nH]c2c1 [Example 109, N5-Methyl-N1-(2-oxo-2,3-dihydro-1H-benzo[d]imidazol-5-yl)-3,4-dihydroquinoline-1,5(2H)-dicarboxamide]	39

Now from value to molecule:

Kd [nM]	SMILES
14	COc1ccccc1N1CCN(C(=O)Nc2ccc3[nH]c(=O)[nH]c3c2)CC1 [Example 128, 4-(2-Methoxyphenyl)-N-(2-oxo-2,3-dihydro-1H-benzo[d]imidazol-5-yl)piperazine-1-carboxamide]
86	COC(=O)c1cccc2c1CCCN2C(=O)Nc1ccc2[nH]c(=O)[nH]c2c1 [Example 98, Methyl 1-((2-oxo-2,3-dihydro-1H-benzo[d]imidazol-5-yl)carbamoyl)-1,2,3,4-tetrahydroquinoline-5-carboxylate]
10	CNC(=O)c1ccc2c(c1)nc(C1CCC(OC)CC1)n2-c1ccc2[nH]c(=O)[nH]c2c1 (centres unmarked) [Example 131, 2-(4-Methoxycyclohexyl)-N-methyl-2′-oxo-2′,3′-dihydro-1′H-[1,5′-bibenzo[d]imidazole]-5-carboxamide]
587	CNC(=O)c1ccc(Nc2ccc3[nH]c(=O)[nH]c3c2)c(N)c1 [Example 1, 3-Amino-N-methyl-4-[(2-oxo-1,3-dihydrobenzimidazol-5-yl)amino]benzamide]
7	O=c1[nH]c2ccc(NS(=O)(=O)C3CCNCC3)cc2[nH]1 [Example 134, N-(2-Oxo-2,3-dihydro-1H-benzo[d]imidazol-5-yl)piperidine-4-sulfonamide]
4	O=C(NC1CCN(Cc2ccccc2)CC1)c1ccc2[nH]c(=O)[nH]c2c1 [Example 139, N-(1-Benzylpiperidin-4-yl)-2-oxo-2,3-dihydro-1H-benzo[d]imidazole-5-carboxamide]
6	CC(C)c1nccn1-c1ccc2[nH]c(=O)[nH]c2c1 [Example 32, 5-(2-Isopropyl-1H-imidazol-1-yl)-1,3-dihydro-2H-benzo[d]imidazol-2-one]
20	COC(=O)c1cccc2c1nc(C(C)C)n2-c1ccc2[nH]c(=O)[nH]c2c1 [Example 47, Methyl 2-isopropyl-2′-oxo-2′,3′-dihydro-1′H-[1,5′-bibenzo[d]imidazole]-4-carboxylate]
899	Cn1cncc1-c1cc(-c2nc3cc(C(N)=O)ccc3n2-c2ccc3[nH]c(=O)[nH]c3c2)c2ccccc2n1 [Example 113, 2-(2-(1-Methyl-1H-imidazol-5-yl)quinolin-4-yl)-2′-oxo-2′,3′-dihydro-1′H-[1,5′-bibenzo[d]imidazole]-5-carboxamide]
18	CCOC(=O)c1ccc2c(c1)CN(c1ccc3[nH]c(=O)[nH]c3c1)C2=O [Example 111, Ethyl 1-oxo-2-(2-oxo-1,3-dihydrobenzimidazol-5-yl)isoindoline-5-carboxylate]
21	O=c1[nH]c2ccc(NC3CCN(Cc4ccccc4)CC3)cc2[nH]1 [Example 152, 5-((1-Benzylpiperidin-4-yl)amino)-1,3-dihydro-2H-benzo[d]imidazol-2-one]
